Experimental data published in US11415579B2, “Assay for measuring a rate of reaction between a target and a ligand candidate” (Imperial College Innovations Ltd., priority 2016, dated 2022).

Tests used:
Cdk2(N272C) (C177A) = target: T1, Cdk2(N272C) (C177A) (Homo sapiens, UniProt P24941, C177A/N272C); test: Kinetic thiol consumption assay with Cdk2 mutant N272C; type: binding; design: key to Rate enhancement, Cdk2 N272: rate constant with Cdk2 ÷ rate constant with model thiol (fold); conditions: for Rate enhancement, Cdk2 N272: Cdk2 N272, additional mutation C177A; for Rate constant with Cdk2 N272C: Protein: Cdk2, cysteine position N272C, additional mutation C177A, in h^-1
T1 construct: poly-histidine; made in house; host or cells: E. coli
How it was run: (§1)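 Thiol consumption was monitored kinetically using 5 μM Cdk2 (C177A plus one introduced cysteine) in degassed phosphate buffer at pH 8 with TCEP beads. Plates were kept 1 h at room temperature before fluorescence reading, and rate constants came from exponential decay fitting.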

[1] = target: T2, human cyclin-dependent kinase 2 (Cdk2) (Homo sapiens, UniProt P24941); test: Kinetic thiol consumption assay with wild type Cdk2 (C177); type: binding; design: key to Rate enhancement, Cdk2 WT: k(Cdk2) divided by k(model thiol); Rate constant with Cdk2 (k(Cdk2)): unit not given here; conditions: for Rate constant with Cdk2 (k(Cdk2)): 500 μM ligand, 5 μM thiol, phosphate buffer pH 8; for Rate enhancement, Cdk2 WT: no additional mutations; for Rate constant with Cdk2 WT: Protein: Cdk2, cysteine position WT, in h^-1; for k(Cdk2)/k(Cdk2_mut) rate enhancement: model thiol Cdk2[C177A, F80C, K278C]; for k(Cdk2)/k(GSH) rate enhancement: model thiol glutathione
T2 construct: poly-histidine; made in house; host or cells: E. coli
How it was run: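 Rate constants came from first-order exponential decay fits of normalized fluorescence against time, with thiol (5 μM) in degassed pH 8 phosphate buffer containing 2% v/v TCEP beads and reads after 1 h at room temperature.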

Cdk2[C177A, F80C, K278C] = target: T3, Cdk2[C177A, F80C, K278C] (Homo sapiens, UniProt P24941, C177A/F80C/K278C); test: Kinetic thiol consumption assay with mutant Cdk2 as model thiol; type: binding; design: unit not given here; conditions: 500 μM ligand, 5 μM thiol, phosphate buffer pH 8
T3 construct: poly-histidine; made in house; host or cells: E. coli
How it was run: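 First-order rate constants were derived by exponential-decay fitting of DMSO/thiol-normalized fluorescence (380/470 nm) over time at room temperature. Thiol was 5 μM E. coli-expressed His-tagged Cdk2 mutant C177A/F80C/K278C in degassed pH 8 phosphate buffer containing 2% v/v TCEP beads.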

Cdk2(H71C) (C177A) = target: T4, Cdk2(H71C) (C177A) (Homo sapiens, UniProt P24941, C177A/H71C); test: Kinetic thiol consumption assay with Cdk2 mutant H71C; type: binding; design: key to Rate enhancement, Cdk2 H71C: rate constant with Cdk2 ÷ rate constant with model thiol (fold); conditions: additional mutation C177A; for Rate constant with Cdk2 H71C: Protein: Cdk2, cysteine position H71C, in h^-1
T4 construct: poly-histidine; made in house; host or cells: E. coli
How it was run: as §1

Cdk2(C177A, F80C) = target: T5, Cdk2(C177A, F80C) (Homo sapiens, UniProt P24941, C177A/F80C); test: Kinetic thiol consumption assay with Cdk2 mutant F80C, incl. kobs versus concentration (Kd, k2); type: binding; design: key to Rate enhancement, Cdk2 F80C: Cdk2 rate constant divided by model-thiol rate constant; conditions: additional mutation C177A; for Rate constant with Cdk2 F80C: Protein: Cdk2, cysteine position F80C, in h^-1
T5 construct: poly-histidine; made in house; host or cells: E. coli
How it was run: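 His-tagged Cdk2(C177A/F80C) from E. coli or model thiol, 5 μM in degassed phosphate buffer pH 8 with TCEP beads, reacted with acrylamide ligands; fluorescence (ex/em 380/470 nm) normalized to DMSO control and fitted to first-order decay for kobs. Kd and k2 obtained from hyperbolic fit of kobs versus ligand concentration.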

Cdk2(R122C) (C177A) = target: T6, Cdk2(R122C) (C177A) (Homo sapiens, UniProt P24941, C177A/R122C); test: Kinetic thiol consumption assay with Cdk2 mutant R122C; type: binding; design: key to Rate enhancement, Cdk2 R122C: rate constant with Cdk2 ÷ rate constant with model thiol (fold); conditions: additional mutation C177A; for Rate constant with Cdk2 R122C: Protein: Cdk2, cysteine position R122C, in h-1
T6 construct: poly-histidine; made in house; host or cells: E. coli
How it was run: as §1

Cdk2(S276C) (C177A) = target: T7, Cdk2(S276C) (C177A) (Homo sapiens, UniProt P24941, C177A/S276C); test: Kinetic thiol consumption assay with Cdk2 mutant S276C; type: binding; design: key to Rate enhancement, Cdk2 S276C: rate constant with Cdk2 ÷ rate constant with model thiol (fold); conditions: additional mutation C177A; for Rate constant with Cdk2 S276C: Protein: Cdk2, cysteine position S276C, in h^-1
T7 construct: poly-histidine; made in house; host or cells: E. coli
How it was run: as §1

Cdk2(S181C) (C177A) = target: T8, Cdk2(S181C) (C177A) (Homo sapiens, UniProt P24941, C177A/S181C); test: Kinetic thiol consumption assay with Cdk2 mutant S181C; type: binding; design: key to Rate enhancement, Cdk2 S181C: rate constant with Cdk2 ÷ rate constant with model thiol (fold); conditions: additional mutation C177A; for Rate constant with Cdk2 S181C: Protein: Cdk2, cysteine position S181C, in h^-1
T8 construct: poly-histidine; made in house; host or cells: E. coli
How it was run: as §1

[2] = Kinetic thiol consumption assay with model thiol glutathione; type: physicochemical; design: Rate constant with glutathione (k(GSH)): unit not given here; conditions: for Rate constant with glutathione (k(GSH)): 500 μM ligand, 5 μM thiol, phosphate buffer pH 8; for Rate constant with Glutathione: Protein: Glutathione, cysteine position NA, in h-1
How it was run: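 Rate constants for acrylamide reaction with 5 μM glutathione come from first-order exponential fits of normalized fluorescence decay (ex 380, em 470 nm). Reactions run in degassed phosphate buffer at pH 8 containing TCEP beads, room temperature.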

Cdk2(T182C) (C177A) = target: T9, Cdk2(T182C) (C177A) (Homo sapiens, UniProt P24941, C177A/T182C); test: Kinetic thiol consumption assay with Cdk2 mutant T182C; type: binding; design: key to Rate enhancement, Cdk2 T182C: rate constant with Cdk2 ÷ rate constant with model thiol (fold); conditions: additional mutation C177A; for Rate constant with Cdk2 T182C: Protein: Cdk2, cysteine position T182C, in h^-1
T9 construct: poly-histidine; made in house; host or cells: E. coli
How it was run: as §1

Row | Structure (SMILES) | Rate enhancement, Cdk2 N272 (Cdk2(N272C) (C177A)) | Rate constant with Cdk2 N272C (Cdk2(N272C) (C177A)) | Rate constant with Cdk2 (k(Cdk2)) [1] | Rate enhancement, Cdk2 WT [1] | Rate constant with Cdk2 WT [1] | k(Cdk2)/k(Cdk2_mut) rate enhancement [1] | k(Cdk2)/k(GSH) rate enhancement [1] | Rate constant with Cdk2[C177A, F80C, K278C] (k(Cdk2_mut)) (Cdk2[C177A, F80C, K278C]) | Rate enhancement, Cdk2 H71C (Cdk2(H71C) (C177A)) | Rate constant with Cdk2 H71C (Cdk2(H71C) (C177A)) | Rate enhancement, Cdk2 F80C (Cdk2(C177A, F80C)) | Rate constant with Cdk2 F80C (Cdk2(C177A, F80C)) | Rate enhancement, Cdk2 R122C (Cdk2(R122C) (C177A)) | Rate constant with Cdk2 R122C (Cdk2(R122C) (C177A)) | Rate enhancement, Cdk2 S276C (Cdk2(S276C) (C177A)) | Rate constant with Cdk2 S276C (Cdk2(S276C) (C177A)) | Rate enhancement, Cdk2 S181C (Cdk2(S181C) (C177A)) | Rate constant with Cdk2 S181C (Cdk2(S181C) (C177A)) | Rate constant with glutathione (k(GSH)) [2] | Rate constant with Glutathione [2] | other results
1 | C=CC(=O)Nc1nc2cc3c(cc2s1)OC(F)(F)O3 [CA-142] | 0.3071 | 0.006229 | 0.03086 | 1.522 | 0.03086 | 1.361 | 1.519 | 0.02268 | 0.1797 | 0.003644 | 9.635 | 0.1954 | 0.1319 | 0.002674 | 3.68 | 0.07463 | 0.4029 | 0.00817 | 0.02031 | 0.02028 | Rate enhancement, Cdk2 T182C (Cdk2(T182C) (C177A)): 12.86; Rate constant with Cdk2 T182C (Cdk2(T182C) (C177A)): 0.2609
2 | C=CC(=O)Nc1ccccc1N1CCOCC1 [CA-030] | 0.2409 | 0.00403 | 0.01069 | 0.639 | 0.01069 | 0.277 | 0.6723 | 0.03859 | 0.1317 | 0.002204 | 1.494 | 0.025 | 0.2896 | 0.004845 | 0.2657 | 0.004445 | 0.7478 | 0.01251 | 0.0159 | 0.01673 | Rate enhancement, Cdk2 T182C (Cdk2(T182C) (C177A)): 0.5957; Rate constant with Cdk2 T182C (Cdk2(T182C) (C177A)): 0.009966
3 | C=CC(=O)Nc1cccc(-c2nnnn2C2CC2)c1 [CA-057] | 2.885 | 0.07649 | 0.0716 | 2.701 | 0.0716 | 0.7607 | 2.77 | 0.09413 | 1.636 | 0.04338 | 2.139 | 0.05671 | 1.176 | 0.03118 | 1.606 | 0.04258 | 1.069 | 0.02834 | 0.02585 | 0.02651 | Rate enhancement, Cdk2 T182C (Cdk2(T182C) (C177A)): 18.51; Rate constant with Cdk2 T182C (Cdk2(T182C) (C177A)): 0.4908
4 | C=CC(=O)N1CCN(C(=O)OCC)CC1c1cccs1 (stereo not shown) [EL-1121] | 0.5551 | 0.01425 | 0.01328 | 0.5173 | 0.01328 | 0.854 | 0.5173 | 0.01555 | 1.52 | 0.03901 | 0.4897 | 0.01257 | 0.2677 | 0.006872 | 0.7713 | 0.0198 | 1.051 | 0.02699 | 0.02567 | 0.02567 | Rate enhancement, Cdk2 T182C (Cdk2(T182C) (C177A)): 1.411; Rate constant with Cdk2 T182C (Cdk2(T182C) (C177A)): 0.03623
